{
  "source": "patent US20160287602A1",
  "about": "“METHODS FOR PROMOTING MOTOR NEURON SURVIVAL” (PRESIDENT AND FELLOWS OF HARVARD COLLEGE, priority 2013, published 2016)",
  "test_system": "human ESC derived MNs on SOD1^G93A astrocytes",
  "experiment": "Human ESC derived MNs co-cultured with astrocytes",
  "type": "cell-based",
  "source_text": "We generated MNs from a human ESC line expressing an HB9::GFP transgene [HuES-3/Hb9::GFP (Di Giorgio et al., 2008)]. Human ESC derived MN cultures were pre-treated with AraC to eliminate progenitor cells. We induced MN death by again withdrawing trophic factors. […] We also investigated the toxic effect of SOD1^G93A astrocytes on human ESC derived MN survival. We found significant death of human MNs cultured on mutant astrocytes.",
  "note": "“Also recorded” adds a separate entry of the source.",
  "data": [
    {"smiles": "COc1cc2c(Nc3ccc(NC(=O)c4ccccc4)cc3)ncnc2cc1OCCCN1CCOCC1", "note": "[ZM447439, N-[4-[[6-Methoxy-7-[3-(4-morpholinyl)propoxy]-4-quinazolinyl]amino]phenyl]benzamide]", "values": [
      {"measurement": "death of human MNs cultured on mutant astrocytes", "setting": "SOD1^G93A astrocytes co-culture", "result": "completely rescued; also recorded: decreases the toxic effect"},
      {"measurement": "size of human MN", "setting": "co-cultured with both wild-type and mutant astrocytes", "result": "significantly increased"}
    ]}
  ]
}
